Assay results as given in patent publication US9353107B2 (Aurigene Discovery Technologies Limited, priority 2012, dated 2016).

Target: T1, recombinant human ALK enzyme (ALK WT) (Homo sapiens, UniProt Q9UM73)
T1 construct: purchased Carna Biosciences 08-518
Assay: ALK WT cell free enzymatic assay (TR-FRET)
Type: biochemical
Conditions: 1 μM ATP; for IC50: 10 point dose response; for inhibition at 0.1 µM: compound at 100 nM; for inhibition at 0.1 µM / inhibition at 1 µM: 30 min pre-incubation; for inhibition at 1 µM: compound at 1 μM
How it was run: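 Read-out is TR-FRET (665 nm/615 nm ratio) using an Eu-labeled anti-phosphotyrosine antibody. Compound is pre-incubated 30 min with recombinant human ALK, then reacted 30 min with 1 μM ATP and 40 nM Poly GT substrate. Values are percent inhibition at 100 nM and 1 μM, plus IC50 from 10-point variable-slope regression.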

T1 sequence (Q9UM73 1058-1620 limits assumed): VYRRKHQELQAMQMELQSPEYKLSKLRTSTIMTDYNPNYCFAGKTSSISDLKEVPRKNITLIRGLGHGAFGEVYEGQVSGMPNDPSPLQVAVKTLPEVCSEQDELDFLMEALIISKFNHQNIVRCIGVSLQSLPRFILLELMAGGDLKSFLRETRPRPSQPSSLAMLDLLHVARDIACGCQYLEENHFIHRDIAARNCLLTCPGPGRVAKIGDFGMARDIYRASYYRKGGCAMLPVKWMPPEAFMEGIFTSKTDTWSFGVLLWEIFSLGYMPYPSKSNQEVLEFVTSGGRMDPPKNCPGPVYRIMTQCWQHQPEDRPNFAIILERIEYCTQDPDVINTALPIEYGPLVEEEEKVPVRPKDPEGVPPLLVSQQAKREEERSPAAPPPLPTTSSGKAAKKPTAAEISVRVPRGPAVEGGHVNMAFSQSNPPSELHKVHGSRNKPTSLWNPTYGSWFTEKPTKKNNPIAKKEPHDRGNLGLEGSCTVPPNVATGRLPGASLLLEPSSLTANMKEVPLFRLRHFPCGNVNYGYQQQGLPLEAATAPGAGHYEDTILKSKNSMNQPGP

SMILES | IC50 [nM] | inhibition at 0.1 µM [%] | inhibition at 1 µM [%]
COc1ccc(-c2cnc3[nH]cc(-c4cnn(CCc5ccccc5F)c4)c3c2)cc1NS(C)(=O)=O [Example 74, N-(5-(3-(1-(2-fluorophenethyl)-1H-pyrazol-4-yl)-1H-pyrrolo[2,3-b]pyridin-5-yl)-2-methoxyphenyl)methanesulfonamide] | 50 to 250 | 51 | 92
COc1ccc(-c2cnc3[nH]cc(-c4cnn(CCc5ccc(F)cc5)c4)c3c2)cc1NS(C)(=O)=O [Example 76, N-(5-(3-(1-(4-fluorophenethyl)-1H-pyrazol-4-yl)-1H-pyrrolo[2,3-b]pyridin-5-yl)-2-methoxyphenyl)methanesulfonamide] | 50 to 250 | 32 | 94
Cc1nn(Cc2cc(F)cc(F)c2)c(C)c1-c1c[nH]c2ncc(-c3ccc(F)c(NS(C)(=O)=O)c3)cc12 [Example 80, N-(5-(3-(1-(3,5-difluorobenzyl)-3,5-dimethyl-1H-pyrazol-4-yl)-1H-pyrrolo[2,3-b]pyridin-5-yl)-2-fluorophenyl)methanesulfonamide] | 50 to 250 | 65 | 93
Fc1cccc(Cn2cc(-c3c[nH]c4ncc(-c5ccc(C6CCNCC6)c(F)c5)cc34)cn2)c1 [Example 84, 5-(3-fluoro-4-(piperidin-4-yl)phenyl)-3-(1-(3-fluorobenzyl)-1H-pyrazol-4-yl)-1H-pyrrolo[2,3-b]pyridine] | < 50 | 98 | 100
Cc1cccc(Cn2cc(-c3c[nH]c4ncc(-c5ccc(C6CCNCC6)cc5)cc34)cn2)c1 [Example 85, 3-(1-(3-methylbenzyl)-1H-pyrazol-4-yl)-5-(4-(piperidin-4-yl)phenyl)-1H-pyrrolo[2,3-b]pyridine] | < 50 | 95 | 100
COc1cc(-c2cnc3[nH]cc(-c4cnn(Cc5cccc(F)c5)c4)c3c2)ccc1C1CCNCC1 [Example 86, 3-(1-(3-fluorobenzyl)-1H-pyrazol-4-yl)-5-(3-methoxy-4-(piperidin-4-yl)phenyl)-1H-pyrrolo[2,3-b]pyridine] | < 50 | 96 | 98
COc1cccc(Cn2cc(-c3c[nH]c4ncc(-c5ccc(C6CCNCC6)cc5)cc34)cn2)c1 [Example 87, 3-(1-(3-methoxybenzyl)-1H-pyrazol-4-yl)-5-(4-(piperidin-4-yl)phenyl)-1H-pyrrolo[2,3-b]pyridine] | < 50 | 84 | 99
c1ccc(CCn2cc(-c3c[nH]c4ncc(-c5ccc(C6CCNCC6)cc5)cc34)cn2)cc1 [Example 88, 3-(1-phenethyl-1H-pyrazol-4-yl)-5-(4-(piperidin-4-yl)phenyl)-1H-pyrrolo[2,3-b]pyridine] | < 50 | 89 | 99
c1cncc(Cn2cc(-c3c[nH]c4ncc(-c5ccc(C6CCNCC6)cc5)cc34)cn2)c1 [Example 89, 5-(4-(piperidin-4-yl)phenyl)-3-(1-(pyridin-3-ylmethyl)-1H-pyrazol-4-yl)-1H-pyrrolo[2,3-b]pyridine] | < 50 | 84 | 98
Cc1nn(Cc2cccc(F)c2)cc1-c1c[nH]c2ncc(-c3ccc(C4CCNCC4)cc3)cc12 [Example 90, 3-(1-(3-fluorobenzyl)-3-methyl-1H-pyrazol-4-yl)-5-(4-(piperidin-4-yl)phenyl)-1H-pyrrolo[2,3-b]pyridine] | < 50 | 97 | 100
Cc1c(-c2c[nH]c3ncc(-c4ccc(C5CCNCC5)cc4)cc23)cnn1Cc1cccc(F)c1 [Example 91, 3-(1-(3-fluorobenzyl)-5-methyl-1H-pyrazol-4-yl)-5-(4-(piperidin-4-yl)phenyl)-1H-pyrrolo[2,3-b]pyridine] | < 50 | 99 | 100

Now from value to molecule:

IC50 [nM] | inhibition at 0.1 µM [%] | inhibition at 1 µM [%] | SMILES
< 50 | 92 | 97 | COc1cc(-c2cnc3[nH]cc(-c4cnn(Cc5cc(F)cc(F)c5)c4)c3c2)ccc1NS(C)(=O)=O [Example 73, N-(4-(3-(1-(3,5-difluorobenzyl)-1H-pyrazol-4-yl)-1H-pyrrolo[2,3-b]pyridin-5-yl)-2-methoxyphenyl)methanesulfonamide]
< 50 | 61 | 100 | COc1ccc(-c2cnc3[nH]cc(-c4cnn(CCc5cccc(F)c5)c4)c3c2)cc1NS(C)(=O)=O [Example 75, N-(5-(3-(1-(3-fluorophenethyl)-1H-pyrazol-4-yl)-1H-pyrrolo[2,3-b]pyridin-5-yl)-2-methoxyphenyl)methanesulfonamide]
< 50 | 85 | 100 | CS(=O)(=O)Nc1cc(-c2cnc3[nH]cc(-c4cnn(CCc5ccccc5)c4)c3c2)ccc1F [Example 77, N-(2-fluoro-5-(3-(1-phenethyl-1H-pyrazol-4-yl)-1H-pyrrolo[2,3-b]pyridin-5-yl)phenyl)methane sulfonamide]
< 50 | 100 | 101 | CS(=O)(=O)Nc1cc(-c2cnc3[nH]cc(-c4cnn(Cc5cccc(F)c5)c4)c3c2)ccc1F [Example 78, N-(2-fluoro-5-(3-(1-(3-fluorobenzyl)-1H-pyrazol-4-yl)-1H-pyrrolo[2,3-b]pyridin-5-yl)phenyl) methanesulfonamide]
< 50 | 101 | 102 | CS(=O)(=O)Nc1cc(-c2cnc3[nH]cc(-c4cnn(Cc5cc(F)cc(F)c5)c4)c3c2)ccc1F [Example 79, N-(5-(3-(1-(3,5-difluorobenzyl)-1H-pyrazol-4-yl)-1H-pyrrolo[2,3-b]pyridin-5-yl)-2-fluorophenyl) methanesulfonamide]
< 50 | 94 | 96 | COc1cc(-c2cnc3[nH]cc(-c4cnn(Cc5cccc(F)c5)c4)c3c2)cnc1N [Example 81, 5-(3-(1-(3-fluorobenzyl)-1H-pyrazol-4-yl)-1H-pyrrolo[2,3-b]pyridin-5-yl)-3-methoxypyridin-2-amine]
< 50 | 99 | 100 | Fc1cccc(Cn2cc(-c3c[nH]c4ncc(-c5ccc(C6CCNCC6)cc5)cc34)cn2)c1 [Example 82, 3-(1-(3-fluorobenzyl)-1H-pyrazol-4-yl)-5-(4-(piperidin-4-yl)phenyl)-1H-pyrrolo[2,3-b]pyridine]
< 50 | 96 | 98 | C[C@H](O)CN1CCC(c2ccc(-c3cnc4[nH]cc(-c5cnn(Cc6cccc(F)c6)c5)c4c3)cc2)CC1 [Example 82A, (S)-1-(4-(4-(3-(1-(3-fluorobenzyl)-1H-pyrazol-4-yl)-1H-pyrrolo[2,3-b]pyridin-5-yl)phenyl)piperidin-1-yl)propan-2-ol]
< 50 | 96 | 100 | CN1CCC(c2ccc(-c3cnc4[nH]cc(-c5cnn(Cc6cccc(F)c6)c5)c4c3)cc2)CC1 [Example 83, 3-(1-(3-fluorobenzyl)-1H-pyrazol-4-yl)-5-(4-(1-methylpiperidin-4-yl)phenyl)-1H-pyrrolo[2,3-b]pyridine]
